Test results as given in patent US20050143406A1, “Amino-substituted hypocrellins for use as sonosensitizers” (priority 2002, published 2005).
Several values for one entry are separate records, joined by “and”; a condition that tells them apart may be missing. Equal values may be shown once.

How the values were obtained:
[1] = tested on: EMT6 murine mastocytoma in vitro; assay: Sonosensitizing potential: LD50 for a fixed dose of ultrasound; assay type: cell-based
[2] = tested on: EMT6 murine mastocytoma in vitro; assay: Photosensitizing potential: LD50 for a fixed dose of light; assay type: cell-based
[3] = tested on: syngeneic murine mastocytoma, EMT6; assay: Efficiency of DMHB in vivo: SDT of EMT6 tumors in Balb/c mice; conditions: Balb/c mice with EMT6 flank tumors, DMHB i.p. 50 μM total body concentration, ultrasound 1 MHz 0.2 W/cm^2 10 min after 48 h; FIG. 2
Method: We explored the use of DMHB in Balb/c mice engrafted in the flank with the syngeneic murine mastocytoma, EMT6. The mice were inoculated subcutaneously with 1.0×10^5 EMT6 tumor cells in sterile injectable saline. Within 7 days, detectable tumors are evident. Mice were randomized into a control group and a SDT treatment group, which differed only in that the sonosensitizer was not present in the drug solvent (see below). Fresh DMHB was dissolved in mineral oil, and injected intraperitoneally into each mouse to achieve a total body concentration of 50 μM. Following a an interval of 48 h for biodistribution of the sensitizer, the mice were lightly anesthetized with Metafane, and placed on a 2% agarose gel, with the tumor lying in a depression of the gel which was juxtaposed to the transducer of an UltraMax physiotherapy ultrasound generator. Ultrasound was applied at a frequency of 1 MHz, at a power density of 0.2 W/cm^2, for a 10-minute period. The maximum energy applied to the tumor volume was approximately 500 J. Tumor growth was monitored daily by caliper measurements in three mutually orthogonal planes. Tumor volume was calculated from the expression, V=π/6×d1×d2×d3 where V=volume (mm^3), and d1,2, and 3 are the three mutually orthogonal diameters. The endpoint for the assay was the proportion of tumors reaching 4 times treatment volume, which was plotted as a function of time. […]

[4] = tested on: Human acute promyelocytic leukemia HL-60 cells; assay: Sonodynamic therapy survival assay, screening of sonosensitizers in vitro; assay type: cell-based; conditions: for Mean - DMSO Bg: mean survival relative to DMSO only (100.0); for Survival, % Mean / Survival, %: insonated HL-60 cells; for Survival, %: single determinations
Text: This screening assay makes use of human promyelocytic leukemia cells growing in suspension culture. The transducer of an UltraMax ultrasound generator for physiotherapy was adapted for in vitro studies by fitting a tissue culture-compatible Teflon cuff such that cell suspensions could be conveniently insonated. The following diagrams represent the equipment employed.
Human acute promyelocytic leukemia HL-60 cells (ATCC No CCL-240) were maintained in RPMI 1640 cell culture medium supplemented with 7 g/L of L-glutamine (Gibco, Grand Island N.Y.), 10% fetal bovine serum (Cansera), and 1% penicillin-streptomycin-neomycin (Gibco), buffered with NaHCO3 to pH 7.4. They were incubated at 37° C. in a humidified atmosphere of 95% air, 5% CO2, and maintained at cell densities between 2.0×10^5 to 1.0×10^6 cells/mL. For insonations in the presence of Hp (a porphyrin positive control) or hypocrellin test compounds, cells were brought to approximately 1.0×10^6 cells/mL, incubated with the putative sensitizer at 37° C. for 2 hours in T-flasks, equilibrated for 30 minutes at room temperature, resuspended and insonated. All procedures took place in low-light conditions to avoid spurious photosensitization. Cells were gently resuspended for 10 seconds before insonation. […] Stock sensitizer was prepared by slowly adding RPMI-1640 medium to the appropriate volume at final sensitizer concentrations between 0.3 mM and 1 mM.
Aliquots of cells were withdrawn prior to insonation to serve as the original value for cell survival. Cells were suspended in Isoton diluent and counted in a Coulter electronic particle counter. Insonation proceeded at a power density of 2 W, at times varying between 3- and 10 seconds to effect cytotoxicity by sonosensitization. Control cultures were subjected to the appropriate dose of ultrasound, in the presence of DMSO, and the absence of the test sonosensitizer. Following ultrasound treatment, aliquots of the cell suspension were withdrawn for counting as above, and the survival fraction, S, was calculated as the fraction: S=(Cell number following insonation/cell number prior to insonation)×100. Results:
HL-60 cells were treated with perylenequinone sensitizers and insonated as described above. The surviving fractions were plotted against sensitizer concentration. […] Cell survival decreased steeply over the next two decades of sensitizer concentration.

[5] = HL-60 cells, fixed dose and energy of ultrasound

For 2-morpholino-ethylaminated HB [HBAM-R1], which “Sonosensitizing Potential (Molar Concentration which exerts LD50)” value (shortened to “Sonosensitizing Potential”) [1] is on record?
The value was “None”.

And the “Photosensitizing Potential (Molar Concentration which exerts LD50)” value (“Photosensitizing Potential” for short) [2]?
The value was 4.0 µM.

For Demethylated-HB [DMHBa], which “Sonosensitizing Potential” value [1] is on record?
Its value is 1.0 mM.

What about the “Photosensitizing Potential” value [2] of the same molecule?
The value was 3.0 µM.

How did the tumor growth [3] turn out when demethoxy hypocrellin B [DMHB] was run?
Its tumor growth is “tumor growth is inhibited”.

What about the “maximum sonotoxic effect compared with Hp control” value ([4]; HL-60 cells) of the same molecule?
Its value is “comparable to that of the Hp control”.

What about the LD50 [4, 5] of the same molecule?
Its LD50 is “approximately 100 μM”.

And the “difference of LD50 versus hematoporphyrin (Hp) control” value [4, 5]?
Its value is 10 fold.

What about the sonotoxicity ([4]; HL-60 cells, up to 100 μM) of the same molecule?
Its sonotoxicity is “negligible sonotoxicity”.

And the “Mean - DMSO Bg” value ([4]; 1 μM DMHB)?
The value was 83.0%.

What about the “Mean - DMSO Bg” value ([4]; 10 μM DMHB) of the same molecule?
Its value is 71.1%.

And the “Mean - DMSO Bg” value ([4]; 100 μM DMHB)?
The value was 63.2%.

What about the “Survival, % Mean” value ([4]; DMSO + 1 μM DMHB) of the same molecule?
Its value is 41.1%.

What about the “Survival, % Mean” value ([4]; DMSO + 10 μM DMHB) of the same molecule?
The value was 35.2%.

And the “Survival, % Mean” value ([4]; DMSO + 100 μM DMHB)?
The value was 31.3%.

And the “Survival, %” value ([4]; DMSO + 1 μM DMHB)?
Its value is 41.8% and 48.2% and 33.5%.

And the “Survival, %” value ([4]; DMSO + 10 μM DMHB)?
Its value is 37.3% and 43.3% and 24.9%.

What about the “Survival, %” value ([4]; DMSO + 100 μM DMHB) of the same molecule?
Its value is 30.7% and 39.4% and 23.7%.

Which “Sonosensitizing Potential” value [1] does the source give for Ethylenediamne-Hypocrellin B [HBED-R2] here?
Its value is “None”.

And the “Photosensitizing Potential” value [2]?
The value was 4.0 µM.

Which results are given for CCCCNc1c2c3c4c(c(OC)c(=O)c5c(O)cc(OC)c(c6c(OC)cc(O)c(c1=O)c63)c54)CC(C)=C2C(C)=O [DMHBb, 2-butylamino-2-demethoxy-Hypocrellin B]?
Sonosensitizing Potential (Molar Concentration which exerts LD50) [1]: 0.1 mM; Photosensitizing Potential (Molar Concentration which exerts LD50) [2]: 0.1 µM

With Methylamine-Hypocrellin B [HBMA-IV] as the molecule, how does the “Sonosensitizing Potential” value [1] read?
Its value is “None”.

What about the “Photosensitizing Potential” value [2] of the same molecule?
The value was 1.0 µM.

How did the LD50 [4, 5] turn out when CC1=C(CCC(=O)O)c2cc3[nH]c(cc4nc(cc5[nH]c(cc1n2)c(C)c5C(C)O)C(C)=C4C(C)O)c(C)c3CCC(=O)O (stereo not shown) [Hp, hematoporphyrin, reference compound] was run?
The LD50 was 1.0 mM.

“2-(N,N-dimethyl-amino) propylamine-Hypocrellin B [HBDD-R1]” was tested. Which “Sonosensitizing Potential” value [1] did it give?
Its value is 1.0 mM.

Which results are given for COc1c2c3c4c(c(OC)c(=O)c5c(O)cc(OC)c(c6c(OC)cc(O)c(c1=O)c63)c54)[C@@H](C(C)=O)[C@@](C)(O)C2 [HA, Hypocrellin A, reference compound]?
Sonosensitizing Potential (Molar Concentration which exerts LD50) [1]: None; Photosensitizing Potential (Molar Concentration which exerts LD50) [2]: 4.0 µM
